Source: ChEMBL document CHEMBL5291721, “A preclinical secondary pharmacology resource illuminates target-adverse drug reaction associations of marketed drugs” (Nat Commun, 2023)

How the values were obtained:
[1] = target: T1, Alpha-1A adrenergic receptor (Homo sapiens, UniProt P35348); assay type: functional, cell-based
T1 sequence (P35348 whole entry): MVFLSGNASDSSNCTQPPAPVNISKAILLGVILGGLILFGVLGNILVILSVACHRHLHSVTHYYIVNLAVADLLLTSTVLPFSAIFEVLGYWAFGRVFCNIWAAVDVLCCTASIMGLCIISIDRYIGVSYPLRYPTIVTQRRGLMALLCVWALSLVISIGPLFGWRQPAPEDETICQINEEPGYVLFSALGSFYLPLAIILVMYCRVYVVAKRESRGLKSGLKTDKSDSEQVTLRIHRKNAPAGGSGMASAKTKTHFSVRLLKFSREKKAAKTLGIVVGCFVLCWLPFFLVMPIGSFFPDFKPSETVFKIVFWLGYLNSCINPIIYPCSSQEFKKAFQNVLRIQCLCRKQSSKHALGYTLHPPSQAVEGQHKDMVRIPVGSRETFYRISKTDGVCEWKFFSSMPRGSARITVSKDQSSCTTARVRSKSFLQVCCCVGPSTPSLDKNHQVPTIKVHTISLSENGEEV

[2] = target: Voltage-dependent L-type calcium channel subunit alpha-1C (Rattus norvegicus, UniProt P22002); assay type: functional
Endothelin-1 receptor = target: T2, Endothelin-1 receptor (Homo sapiens, UniProt P25101)
T2 sequence (P25101 whole entry): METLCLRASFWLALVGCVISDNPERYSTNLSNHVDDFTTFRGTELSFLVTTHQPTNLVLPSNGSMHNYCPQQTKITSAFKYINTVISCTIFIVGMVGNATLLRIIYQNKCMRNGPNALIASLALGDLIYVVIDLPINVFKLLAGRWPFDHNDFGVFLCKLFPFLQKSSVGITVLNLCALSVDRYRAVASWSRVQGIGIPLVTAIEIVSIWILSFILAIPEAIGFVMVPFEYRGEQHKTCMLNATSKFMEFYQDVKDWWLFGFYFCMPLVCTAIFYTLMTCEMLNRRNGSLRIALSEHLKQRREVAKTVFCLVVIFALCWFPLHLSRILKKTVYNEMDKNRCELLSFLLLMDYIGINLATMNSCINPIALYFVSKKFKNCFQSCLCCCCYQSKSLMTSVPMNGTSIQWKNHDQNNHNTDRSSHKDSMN

Estrogen receptor = target: T3, Estrogen receptor (Homo sapiens, UniProt P03372)
T3 sequence (P03372 whole entry): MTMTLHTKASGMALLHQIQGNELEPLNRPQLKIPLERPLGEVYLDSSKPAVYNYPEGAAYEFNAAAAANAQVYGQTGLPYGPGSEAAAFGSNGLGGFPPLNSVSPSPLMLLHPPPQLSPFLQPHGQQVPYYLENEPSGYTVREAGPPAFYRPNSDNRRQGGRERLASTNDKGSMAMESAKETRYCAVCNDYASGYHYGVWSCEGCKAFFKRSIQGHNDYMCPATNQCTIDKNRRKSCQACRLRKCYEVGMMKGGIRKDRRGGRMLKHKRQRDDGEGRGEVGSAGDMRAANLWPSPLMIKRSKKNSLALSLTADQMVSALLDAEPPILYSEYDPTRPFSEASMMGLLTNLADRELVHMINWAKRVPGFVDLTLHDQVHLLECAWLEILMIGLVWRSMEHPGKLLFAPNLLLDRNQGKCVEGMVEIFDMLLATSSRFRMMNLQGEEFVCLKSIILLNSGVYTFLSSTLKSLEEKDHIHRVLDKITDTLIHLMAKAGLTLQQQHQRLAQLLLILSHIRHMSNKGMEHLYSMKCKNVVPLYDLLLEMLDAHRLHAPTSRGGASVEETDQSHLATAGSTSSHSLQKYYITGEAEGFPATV

Progesterone receptor = target: T4, Progesterone receptor (Homo sapiens, UniProt P06401)
T4 sequence (P06401 whole entry): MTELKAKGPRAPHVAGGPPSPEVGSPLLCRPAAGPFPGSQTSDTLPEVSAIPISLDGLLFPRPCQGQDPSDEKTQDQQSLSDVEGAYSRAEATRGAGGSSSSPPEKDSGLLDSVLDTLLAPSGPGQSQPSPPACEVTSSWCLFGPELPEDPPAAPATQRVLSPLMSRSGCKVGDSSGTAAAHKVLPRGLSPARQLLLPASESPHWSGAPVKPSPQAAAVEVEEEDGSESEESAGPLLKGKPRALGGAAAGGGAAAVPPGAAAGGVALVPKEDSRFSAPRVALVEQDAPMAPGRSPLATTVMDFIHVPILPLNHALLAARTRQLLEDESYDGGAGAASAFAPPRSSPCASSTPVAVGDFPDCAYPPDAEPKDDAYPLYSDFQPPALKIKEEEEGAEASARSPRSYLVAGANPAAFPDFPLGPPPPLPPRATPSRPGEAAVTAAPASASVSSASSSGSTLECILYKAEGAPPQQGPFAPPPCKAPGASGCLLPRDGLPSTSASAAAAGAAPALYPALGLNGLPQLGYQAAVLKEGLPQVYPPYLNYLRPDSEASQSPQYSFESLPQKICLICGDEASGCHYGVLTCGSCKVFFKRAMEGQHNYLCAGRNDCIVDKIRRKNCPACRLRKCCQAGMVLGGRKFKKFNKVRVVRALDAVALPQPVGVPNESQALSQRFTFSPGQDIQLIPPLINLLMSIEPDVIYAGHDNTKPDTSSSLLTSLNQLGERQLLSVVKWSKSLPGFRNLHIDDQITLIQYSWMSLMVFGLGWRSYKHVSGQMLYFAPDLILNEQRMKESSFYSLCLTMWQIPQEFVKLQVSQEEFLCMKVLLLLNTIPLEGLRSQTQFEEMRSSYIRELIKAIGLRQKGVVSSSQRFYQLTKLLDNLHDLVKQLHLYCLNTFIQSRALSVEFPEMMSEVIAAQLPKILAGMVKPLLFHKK

[3] = target: Sodium-dependent noradrenaline transporter (Homo sapiens, UniProt P23975)
[4] = target: Muscarinic acetylcholine receptor M3 (Homo sapiens, UniProt P20309)
Histamine H1 receptor = Histamine H1 receptor (Homo sapiens, UniProt P35367)
Note: assay procedure not described here.

Chain of Histamine H1 receptor (P35367 whole entry): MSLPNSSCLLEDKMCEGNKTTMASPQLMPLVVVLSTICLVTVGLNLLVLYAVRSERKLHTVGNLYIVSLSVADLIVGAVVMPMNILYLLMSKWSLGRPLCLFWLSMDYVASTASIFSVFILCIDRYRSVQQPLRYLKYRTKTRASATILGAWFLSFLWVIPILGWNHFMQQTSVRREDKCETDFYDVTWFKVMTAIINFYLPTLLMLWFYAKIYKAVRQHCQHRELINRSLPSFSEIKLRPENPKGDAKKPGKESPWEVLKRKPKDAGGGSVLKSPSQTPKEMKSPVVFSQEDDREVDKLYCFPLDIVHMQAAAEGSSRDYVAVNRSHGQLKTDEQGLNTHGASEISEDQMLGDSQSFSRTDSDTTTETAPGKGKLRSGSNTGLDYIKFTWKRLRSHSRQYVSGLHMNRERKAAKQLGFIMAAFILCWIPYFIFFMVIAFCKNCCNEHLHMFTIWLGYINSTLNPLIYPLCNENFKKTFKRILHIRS
Chain of Sodium-dependent noradrenaline transporter (P23975 whole entry): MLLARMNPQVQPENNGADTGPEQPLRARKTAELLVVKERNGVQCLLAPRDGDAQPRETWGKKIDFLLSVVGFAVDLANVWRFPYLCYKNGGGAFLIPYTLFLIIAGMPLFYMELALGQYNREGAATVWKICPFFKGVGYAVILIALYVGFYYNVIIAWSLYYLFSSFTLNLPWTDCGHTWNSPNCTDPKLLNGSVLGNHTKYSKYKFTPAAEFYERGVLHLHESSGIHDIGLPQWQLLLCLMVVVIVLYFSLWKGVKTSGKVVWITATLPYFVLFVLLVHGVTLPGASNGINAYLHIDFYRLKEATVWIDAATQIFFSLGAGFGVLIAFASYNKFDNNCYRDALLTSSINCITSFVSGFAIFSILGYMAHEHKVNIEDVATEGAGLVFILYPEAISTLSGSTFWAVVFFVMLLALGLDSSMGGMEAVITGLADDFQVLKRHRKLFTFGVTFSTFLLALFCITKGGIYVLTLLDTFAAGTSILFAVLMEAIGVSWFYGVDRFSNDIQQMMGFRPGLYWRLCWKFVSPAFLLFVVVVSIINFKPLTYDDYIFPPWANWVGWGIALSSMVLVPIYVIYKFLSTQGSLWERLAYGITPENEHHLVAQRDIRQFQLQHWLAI
Chain of Muscarinic acetylcholine receptor M3 (P20309 whole entry): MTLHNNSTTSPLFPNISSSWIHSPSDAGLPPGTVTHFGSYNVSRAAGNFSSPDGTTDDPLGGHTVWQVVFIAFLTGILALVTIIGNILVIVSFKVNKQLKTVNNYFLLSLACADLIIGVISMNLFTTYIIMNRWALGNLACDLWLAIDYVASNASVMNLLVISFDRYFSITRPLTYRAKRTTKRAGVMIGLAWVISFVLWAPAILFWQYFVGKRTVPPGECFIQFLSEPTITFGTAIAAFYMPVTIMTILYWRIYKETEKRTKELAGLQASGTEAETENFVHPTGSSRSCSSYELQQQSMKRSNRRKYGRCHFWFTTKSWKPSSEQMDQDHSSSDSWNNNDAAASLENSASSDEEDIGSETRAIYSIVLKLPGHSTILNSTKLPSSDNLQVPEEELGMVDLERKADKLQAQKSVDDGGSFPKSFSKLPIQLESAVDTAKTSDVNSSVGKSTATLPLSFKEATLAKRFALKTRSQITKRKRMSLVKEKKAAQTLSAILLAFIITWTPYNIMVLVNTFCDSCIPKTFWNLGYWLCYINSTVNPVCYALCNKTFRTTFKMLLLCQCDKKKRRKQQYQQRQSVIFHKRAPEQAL
Chain of Voltage-dependent L-type calcium channel subunit alpha-1C (P22002 whole entry): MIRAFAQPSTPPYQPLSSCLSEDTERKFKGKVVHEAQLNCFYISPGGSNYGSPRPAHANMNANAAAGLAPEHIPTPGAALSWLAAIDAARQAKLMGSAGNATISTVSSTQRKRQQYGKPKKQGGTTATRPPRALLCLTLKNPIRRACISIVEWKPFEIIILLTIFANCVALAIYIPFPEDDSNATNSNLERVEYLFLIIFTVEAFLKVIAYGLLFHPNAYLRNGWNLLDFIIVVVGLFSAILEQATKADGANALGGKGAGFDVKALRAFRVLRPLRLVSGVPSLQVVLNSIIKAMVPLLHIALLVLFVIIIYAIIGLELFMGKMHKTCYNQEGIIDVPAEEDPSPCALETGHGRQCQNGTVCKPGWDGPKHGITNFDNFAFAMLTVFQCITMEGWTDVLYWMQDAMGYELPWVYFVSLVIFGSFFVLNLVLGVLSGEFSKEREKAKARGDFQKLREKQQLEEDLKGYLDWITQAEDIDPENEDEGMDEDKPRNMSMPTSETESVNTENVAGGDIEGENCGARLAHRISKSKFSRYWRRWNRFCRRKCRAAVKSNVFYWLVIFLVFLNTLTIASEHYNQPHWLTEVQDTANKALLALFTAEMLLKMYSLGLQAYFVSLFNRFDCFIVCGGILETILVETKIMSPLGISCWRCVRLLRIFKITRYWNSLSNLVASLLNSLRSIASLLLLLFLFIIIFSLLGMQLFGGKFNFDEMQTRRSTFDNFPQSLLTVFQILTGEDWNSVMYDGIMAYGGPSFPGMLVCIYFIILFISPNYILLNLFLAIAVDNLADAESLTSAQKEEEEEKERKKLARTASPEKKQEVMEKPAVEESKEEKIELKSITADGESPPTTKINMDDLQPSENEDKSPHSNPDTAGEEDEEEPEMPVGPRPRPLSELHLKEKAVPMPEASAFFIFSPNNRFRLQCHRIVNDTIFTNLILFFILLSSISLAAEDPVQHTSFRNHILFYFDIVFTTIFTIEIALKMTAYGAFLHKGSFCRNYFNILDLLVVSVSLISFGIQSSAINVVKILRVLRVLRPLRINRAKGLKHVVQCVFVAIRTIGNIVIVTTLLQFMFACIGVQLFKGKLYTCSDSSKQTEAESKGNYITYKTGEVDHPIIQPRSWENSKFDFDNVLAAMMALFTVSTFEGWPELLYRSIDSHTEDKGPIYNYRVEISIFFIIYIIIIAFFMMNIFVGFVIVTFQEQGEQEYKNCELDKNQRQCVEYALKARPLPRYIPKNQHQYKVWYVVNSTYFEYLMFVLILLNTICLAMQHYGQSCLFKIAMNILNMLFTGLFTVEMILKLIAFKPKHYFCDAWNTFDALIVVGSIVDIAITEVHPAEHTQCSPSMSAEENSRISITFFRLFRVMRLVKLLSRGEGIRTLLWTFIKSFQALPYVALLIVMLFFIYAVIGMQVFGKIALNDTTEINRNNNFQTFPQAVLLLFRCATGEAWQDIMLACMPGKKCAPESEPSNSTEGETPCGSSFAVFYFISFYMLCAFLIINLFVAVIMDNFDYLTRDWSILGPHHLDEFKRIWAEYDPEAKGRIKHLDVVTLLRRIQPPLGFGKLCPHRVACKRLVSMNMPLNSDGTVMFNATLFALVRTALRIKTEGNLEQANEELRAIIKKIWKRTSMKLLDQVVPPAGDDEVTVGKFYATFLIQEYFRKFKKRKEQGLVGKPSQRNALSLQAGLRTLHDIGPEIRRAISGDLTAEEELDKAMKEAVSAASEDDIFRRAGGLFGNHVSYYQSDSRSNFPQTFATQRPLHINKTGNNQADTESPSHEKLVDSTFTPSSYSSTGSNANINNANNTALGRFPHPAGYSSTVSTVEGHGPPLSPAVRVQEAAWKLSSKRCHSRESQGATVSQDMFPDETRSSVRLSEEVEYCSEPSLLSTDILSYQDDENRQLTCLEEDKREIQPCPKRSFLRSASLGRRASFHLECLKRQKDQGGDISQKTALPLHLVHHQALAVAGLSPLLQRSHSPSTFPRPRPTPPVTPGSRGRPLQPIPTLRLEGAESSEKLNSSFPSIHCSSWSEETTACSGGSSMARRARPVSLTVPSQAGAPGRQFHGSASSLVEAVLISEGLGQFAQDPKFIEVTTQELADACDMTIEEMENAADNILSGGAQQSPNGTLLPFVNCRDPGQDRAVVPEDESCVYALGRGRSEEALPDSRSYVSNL

Row | SMILES | AC50 [1] | AC50 [2] | AC50 (Endothelin-1 receptor) | AC50 (Estrogen receptor) | AC50 (Progesterone receptor) | AC50 [3] | AC50 [4] | AC50 (Histamine H1 receptor)
1 | Nc1nc(N)c2nc(-c3ccccc3)c(N)nc2n1 | > 30 µM | > 30 µM | > 30 µM | > 30 µM | > 30 µM | 16.1 µM | – | –
2 | N[C@@H](C(=O)N[C@@H]1C(=O)N2C(C(=O)O)=C(Cl)CS[C@H]12)c1ccccc1 [CEFACLOR ANHYDROUS] | > 30 µM | – | > 30 µM | > 30 µM | – | – | > 30 µM | > 30 µM
3 | CCc1nn(CCCN2CCN(c3cccc(Cl)c3)CC2)c(=O)n1CCOc1ccccc1 [NEFAZODONE] | 2.2 µM | > 10 µM | > 30 µM | > 30 µM | – | – | > 10 µM | 0.41 µM
4 | C[C@@H]1O[C@@H]1P(=O)(O)O [FOSFOMYCIN] | – | > 10 µM | – | – | – | – | > 30 µM | > 10 µM
5 | OCc1cc([C@@H](O)CNCCCCCCOCCOCc2c(Cl)cccc2Cl)ccc1O [VILANTEROL] | 1.1 µM | – | > 30 µM | – | – | – | > 30 µM | > 30 µM
6 | COC(=O)[C@@H]1CC2=CC(=O)CC[C@]2(C)[C@@]23O[C@@H]2C[C@@]2(C)[C@@H](CC[C@@]24CCC(=O)O4)[C@H]13 [EPLERENONE] | > 30 µM | > 10 µM | > 30 µM | > 30 µM | – | – | > 30 µM | > 30 µM
7 | COc1cc(Nc2c(C#N)cnc3cc(OCCCN4CCN(C)CC4)c(OC)cc23)c(Cl)cc1Cl [BOSUTINIB] | – | > 10 µM | > 30 µM | > 30 µM | 7.75 µM | 24.1 µM | – | > 10 µM
8 | CC(C)NCC(O)COc1ccc(COCCOC(C)C)cc1 (stereo not given) [BISOPROLOL] | – | > 10 µM | > 30 µM | > 30 µM | – | – | > 30 µM | > 10 µM
9 | CC(C)C(=O)Nc1ccc([N+](=O)[O-])c(C(F)(F)F)c1 [FLUTAMIDE] | > 30 µM | > 10 µM | – | > 10 µM | > 30 µM | > 30 µM | – | –
10 | CC(N)Cc1ccccc1 (stereo not given) [AMPHETAMINE] | > 30 µM | > 10 µM | > 30 µM | > 30 µM | – | – | > 30 µM | –
11 | C#C[C@]1(O)CC[C@H]2[C@@H]3CCc4cc(O)ccc4[C@H]3CC[C@@]21C [ETHINYL ESTRADIOL] | – | > 10 µM | > 30 µM | – | 0.02 µM | – | – | –
12 | CS(=O)(=O)c1ccc([C@@H](O)[C@@H](CO)NC(=O)C(Cl)Cl)cc1 [THIAMPHENICOL] | > 30 µM | > 30 µM | > 30 µM | > 30 µM | > 30 µM | > 30 µM | – | –
13 | CN1CCCC(n2nc(Cc3ccc(Cl)cc3)c3ccccc3c2=O)CC1 (stereo not given) [AZELASTINE] | > 30 µM | – | > 30 µM | – | – | – | > 30 µM | –
14 | CC(C)Cc1ccc(CC(=O)O)cc1 [IBUFENAC] | > 30 µM | – | > 30 µM | – | – | – | > 30 µM | > 30 µM
15 | C[C@H]1O[C@H](O[C@H]2[C@H](O)[C@@H](O)[C@@H](O[C@H]3[C@H](O)[C@@H](O)C(O)O[C@@H]3CO)O[C@@H]2CO)[C@H](O)[C@@H](O)[C@@H]1N[C@H]1C=C(CO)[C@@H](O)[C@H](O)[C@H]1O (stereo not given in full) [ACARBOSE] | > 30 µM | > 10 µM | > 30 µM | – | > 30 µM | > 30 µM | – | –
16 | CCc1ccc(CCOc2ccc(CC3SC(=O)NC3=O)cc2)nc1 (stereo not given) [PIOGLITAZONE] | – | > 10 µM | 15.9 µM | > 30 µM | > 30 µM | > 30 µM | – | –
17 | CNC(=O)c1cc(Oc2ccc(NC(=O)Nc3ccc(Cl)c(C(F)(F)F)c3)cc2)ccn1 [SORAFENIB] | > 30 µM | > 30 µM | > 30 µM | – | – | – | > 30 µM | > 30 µM
18 | COC(=O)N[C@H](C(=O)N[C@@H](Cc1ccccc1)[C@@H](O)CN(Cc1ccc(-c2ccccn2)cc1)NC(=O)[C@@H](NC(=O)OC)C(C)(C)C)C(C)(C)C [ATAZANAVIR] | – | > 10 µM | – | > 30 µM | – | – | > 30 µM | > 10 µM
19 | Oc1ncnc2[nH]ncc12 [ALLOPURINOL] | > 30 µM | > 10 µM | > 30 µM | > 30 µM | > 30 µM | > 30 µM | – | –
20 | NC(=O)c1cnccn1 [PYRAZINAMIDE] | > 30 µM | > 30 µM | > 30 µM | > 30 µM | > 30 µM | > 30 µM | – | –
21 | Cc1ccc(C(=O)c2cc(O)c(O)c([N+](=O)[O-])c2)cc1 [TOLCAPONE] | – | > 10 µM | – | – | – | – | > 30 µM | > 10 µM
22 | CC(=O)c1ccc2c(c1)N(CCCN1CCN(CCO)CC1)c1ccccc1S2 [ACETOPHENAZINE] | > 30 µM | – | > 30 µM | – | – | – | > 30 µM | 0.049 µM
23 | CC(C(=O)O)c1ccc(C(=O)c2cccs2)cc1 (stereo not given) [SUPROFEN] | – | > 10 µM | – | – | – | – | > 30 µM | > 10 µM
24 | NC(=O)c1ncn([C@@H]2O[C@H](CO)[C@@H](O)[C@H]2O)c1O [MIZORIBINE] | > 30 µM | – | > 30 µM | > 30 µM | – | – | > 30 µM | > 30 µM
25 | CCO/N=C(\C(=O)N[C@@H]1C(=O)N2C(C(=O)[O-])=C(Sc3nc(-c4cc[n+](C)cc4)cs3)CS[C@H]12)c1nsc(N)n1 [CEFTAROLINE] | – | – | – | – | > 30 µM | > 30 µM | – | –
26 | CCOC(=O)N[C@@H]1CC[C@@H]2[C@@H](C1)C[C@H]1C(=O)O[C@H](C)[C@H]1[C@H]2/C=C/c1ccc(-c2cccc(F)c2)cn1 [VORAPAXAR] | – | – | – | – | > 30 µM | 4.56 µM | – | –
27 | CC(O)CO (stereo not given) [PROPYLENE GLYCOL] | – | – | – | – | > 30 µM | > 30 µM | – | –
28 | OC[C@@H](O)[C@@H](O)[C@H](O)[C@H](O)CO [MANNITOL] | – | – | – | – | > 30 µM | > 30 µM | – | –
29 | CN1C(=O)CC(C)(c2ccccc2)C1=O (stereo not given) [METHSUXIMIDE] | – | > 10 µM | – | > 10 µM | – | – | > 30 µM | > 10 µM
